Data from ChEMBL document CHEMBL6182832, “Design and synthesis of coumarin-based amphoteric antimicrobials with biofilm interference and immunoregulation effects” (RSC Med Chem, 2025).
≈ marks a conversion by molar mass, not a printed value. Calls of active or inactive are those of the source. No cut-off for these calls is given here.

Legend:
Staphylococcus aureus [1] = test: Antibacterial activity against clinically isolated Staphylococcus aureus ATCC29213 assessed as inhibition of bacterial growth measured after 16 to 24 hrs by broth microdilution method; format: functional; details: time 16-24 hrs, read-out: MIC100
Staphylococcus aureus [2] = test: Antibacterial activity against clinically isolated methicillin-resistant Staphylococcus aureus assessed as inhibition of bacterial growth measured after 16 to 24 hrs by broth microdilution method; format: functional; details: time 16-24 hrs, read-out: MIC100
Escherichia coli [3] = test: Antibacterial activity against clinically isolated Escherichia coli DE17 assessed as inhibition of bacterial growth measured after 16 to 24 hrs by broth microdilution method; format: functional; details: time 16-24 hrs, read-out: MIC100
Escherichia coli [4] = test: Antibacterial activity against clinically isolated Escherichia coli ATCC25922 assessed as inhibition of bacterial growth measured after 16 to 24 hrs by broth microdilution method; format: functional; details: time 16-24 hrs, read-out: MIC100
Bacillus subtilis = test: Antibacterial activity against clinically isolated Bacillus subtilis ATCC6633 assessed as inhibition of bacterial growth measured after 16 to 24 hrs by broth microdilution method; format: functional; details: time 16-24 hrs, read-out: MIC100
Enterococcus faecalis = test: Antibacterial activity against clinically isolated Enterococcus faecalis ATCC29212 assessed as inhibition of bacterial growth measured after 16 to 24 hrs by broth microdilution method; format: functional; details: time 16-24 hrs, read-out: MIC100
Bacillus cereus = test: Antibacterial activity against clinically isolated Bacillus cereus CMCC63303 assessed as inhibition of bacterial growth measured after 16 to 24 hrs by broth microdilution method; format: functional; details: time 16-24 hrs, read-out: MIC100
Listeria monocytogenes = test: Antibacterial activity against clinically isolated Listeria monocytogenes CICC21662 assessed as inhibition of bacterial growth measured after 16 to 24 hrs by broth microdilution method; format: functional; details: time 16-24 hrs, read-out: MIC100
Staphylococcus aureus [5] = test: Anti-biofilm activity against clinically isolated Staphylococcus aureus ATCC29213 assessed inhibition of biofilm formation at 4 ug/ml measured after 12 to 16 hrs incubation by crystal violet staining based analysis; format: functional; details: time 12-16 hrs
Staphylococcus aureus [6] = test: Anti-biofilm activity against clinically isolated Staphylococcus aureus ATCC29213 assessed inhibition of biofilm formation at 0.5 to 128 ug/ml measured after 12 to 16 hrs incubation by crystal violet staining based analysis; format: functional, organism-based; details: dose 0.5-128 µg/ml, time 12-16 hrs
Escherichia coli [7] = test: Anti-biofilm activity against clinically isolated Escherichia coli DE17 assessed inhibition of biofilm formation at 0.5 to 128 ug/ml measured after 12 to 16 hrs incubation by crystal violet staining based analysis; format: functional, organism-based; details: dose 0.5-128 µg/ml, time 12-16 hrs
Staphylococcus aureus [8] = test: Biofilm eradication activity against Staphylococcus aureus ATCC29213 assessed biofilm scavenging at 4 ug/ml measured after 12 to 16 hrs incubation by crystal violet staining based analysis; format: functional, organism-based; details: dose 4.0 µg/ml, time 12-16 hrs
RAW264.7 = test: Anti-inflammatory activity against mouse RAW264.7 cells assessed as inhibition LPS-stimulated NO production 0.5 to 4 ug/ml measured after 24 hrs by NO assay kit; format: functional, cell-based; details: dose 0.5-4 µg/ml
Escherichia coli [9] = test: Biofilm eradication activity against Escherichia coli DE17 assessed biofilm scavenging at 16 ug/ml measured after 12 to 16 hrs incubation by crystal violet staining based analysis; format: functional, organism-based; details: dose 16.0 µg/ml, time 12-16 hrs
[10] = Hemolytic activity in rabbit erythrocytes assessed as hemolysis at >8 ug/ml; format: toxicity, cell-based, Oryctolagus cuniculus; details: erythrocyte, dose > 8 µg/ml
Staphylococcus aureus [11] = test: Anti-biofilm activity against clinically isolated Staphylococcus aureus ATCC29213 assessed inhibition of biofilm formation at 2 ug/ml measured after 12 to 16 hrs incubation by crystal violet staining based analysis; format: functional; details: time 12-16 hrs
Escherichia coli [12] = test: Anti-biofilm activity against clinically isolated Escherichia coli DE17 assessed inhibition of biofilm formation at 8 ug/ml measured after 12 to 16 hrs incubation by crystal violet staining based analysis; format: functional; details: time 12-16 hrs
Escherichia coli [13] = test: Anti-biofilm activity against clinically isolated Escherichia coli DE17 assessed inhibition of biofilm formation at 16 ug/ml measured after 12 to 16 hrs incubation by crystal violet staining based analysis; format: functional; details: time 12-16 hrs
[14] = Hemolytic activity in rabbit erythrocytes assessed as hemolysis at 0.5 to 125 ug/ml; format: toxicity, cell-based, Oryctolagus cuniculus; details: erythrocyte, dose 0.5-125 µg/ml

| Compound | MIC (Staphylococcus aureus [1]) [µg/mL] | MIC (Staphylococcus aureus [2]) [µg/mL] | MIC (Escherichia coli [3]) [µg/mL] | MIC (Escherichia coli [4]) [µg/mL] | also measured |
| --- | --- | --- | --- | --- | --- |
| CN(C)CCCCOc1cc(=O)oc2ccccc12 | > 256 | > 256 | > 256 | > 256 |  |
| CCN1CCN(c2cc3c(cc2F)c(=O)c(C(=O)O)cn3C2CC2)CC1 [ENROFLOXACIN] | 0.062 (≈ 0.173 µM) | 32 (≈ 89 µM) | 0.031 (≈ 0.0863 µM) | 0.031 (≈ 0.0863 µM) |  |
| CN(C)CCCCCCCCCCCCOc1cc(=O)oc2ccccc12 | 4 (≈ 10.7 µM) | 4 (≈ 10.7 µM) | > 256 | > 256 |  |
| O=c1cc(O)c2ccccc2o1 [4-HYDROXYCOUMARINS] | 256 (≈ 1580 µM) | > 256 | > 256 | > 256 | MIC (Bacillus subtilis): > 256 µg/mL; MIC (Enterococcus faecalis): > 256 µg/mL; MIC (Bacillus cereus): > 256 µg/mL; MIC (Listeria monocytogenes): > 256 µg/mL |
| CN(C)CCCCCCCCCCCCOc1ccc2ccc(=O)oc2c1 | 16 (≈ 42.8 µM) | 4 (≈ 10.7 µM) | > 256 | > 256 |  |
| CCCCN(CCCC)CCCCOc1ccc2ccc(=O)oc2c1 | > 256 | > 256 | > 256 | > 256 |  |
| CCN(CC)CCCCCCCCOc1ccc2ccc(=O)oc2c1 | 64 (≈ 185 µM) | 64 (≈ 185 µM) | > 256 | > 256 |  |
| CCCCN(CCCC)CCCCCCCCOc1ccc2ccc(=O)oc2c1 | 16 (≈ 39.8 µM) | 32 (≈ 79.7 µM) | > 256 | > 256 |  |
| CCN(CC)CCCCCCCCCCCCOc1cc(=O)oc2ccccc12 | 2 (≈ 4.98 µM) | 2 (≈ 4.98 µM) | > 256 | > 256 | inhibition at 4 µg/mL (Staphylococcus aureus [5]): 100%; Activity (Staphylococcus aureus [6]): Dose-dependent-effect; Activity (Escherichia coli [7]): Dose-dependent-effect; MIC (Bacillus subtilis): 1 µg/mL (≈ 2.49 µM); Activity (Staphylococcus aureus [8]): Active; Activity (RAW264.7): Active; Activity (Escherichia coli [9]): Active; Activity [10]: Toxic; inhibition at 2 µg/mL (Staphylococcus aureus [11]): 100%; MIC (Enterococcus faecalis): 4 µg/mL (≈ 9.96 µM); MIC (Bacillus cereus): 4 µg/mL (≈ 9.96 µM); MIC (Listeria monocytogenes): 1 µg/mL (≈ 2.49 µM); inhibition at 8 µg/mL (Escherichia coli [12]): 100%; inhibition at 16 µg/mL (Escherichia coli [13]): 100% |
| CN[C@H](CC(C)C)C(=O)N[C@H]1C(=O)N[C@@H](CC(N)=O)C(=O)N[C@H]2C(=O)N[C@H]3C(=O)N[C@H](C(=O)N[C@H](C(=O)O)c4cc(O)cc(O)c4-c4cc3ccc4O)[C@H](O)c3ccc(c(Cl)c3)Oc3cc2cc(c3O[C@@H]2O[C@H](CO)[C@@H](O)[C@H](O)[C@H]2O[C@H]2C[C@](C)(N)[C@H](O)[C@H](C)O2)Oc2ccc(cc2Cl)[C@H]1O [VANCOMYCIN] |  |  | > 256 | > 256 | MIC (Bacillus subtilis): 0.5 µg/mL (≈ 0.345 µM); MIC (Enterococcus faecalis): 2 µg/mL (≈ 1.38 µM); MIC (Listeria monocytogenes): 0.5 µg/mL (≈ 0.345 µM) |
| O=c1ccc2ccc(O)cc2o1 [UMBELLIFERONE] | > 256 | > 256 | > 256 | > 256 | Activity [14]: Non-toxic; Activity (Staphylococcus aureus [6]): inactive; Activity (Escherichia coli [7]): inactive; MIC (Bacillus subtilis): > 256 µg/mL; Activity (RAW264.7): inactive; MIC (Enterococcus faecalis): > 256 µg/mL; MIC (Bacillus cereus): > 256 µg/mL; MIC (Listeria monocytogenes): > 256 µg/mL |
| CN(C)CCCCOc1ccc2ccc(=O)oc2c1 | > 256 | > 256 | > 256 | > 256 |  |
| CN(C)CCCCCCCCOc1cc(=O)oc2ccccc12 | 32 (≈ 101 µM) | 64 (≈ 202 µM) | > 256 | > 256 |  |
| CCCN(CCC)CCCCOc1cc(=O)oc2ccccc12 | > 256 | > 256 | > 256 | > 256 |  |
| CCCN(CCC)CCCCCCCCOc1cc(=O)oc2ccccc12 | 16 (≈ 42.8 µM) | 32 (≈ 85.7 µM) | > 256 | > 256 |  |
| CCN(CC)CCCCOc1ccc2ccc(=O)oc2c1 | > 256 | > 256 | > 256 | > 256 |  |
| CCCCN(CCCC)CCCCOc1cc(=O)oc2ccccc12 | 256 (≈ 741 µM) | > 256 | > 256 | > 256 |  |
| CCCN(CCC)CCCCCCCCCCCCOc1cc(=O)oc2ccccc12 | 4 (≈ 9.31 µM) | 2 (≈ 4.66 µM) | > 256 | > 256 |  |
| CCN(CC)CCCCOc1cc(=O)oc2ccccc12 | > 256 | > 256 | > 256 | > 256 |  |
| CCN(CC)CCCCCCCCOc1cc(=O)oc2ccccc12 | 64 (≈ 185 µM) | 4 (≈ 11.6 µM) | > 256 | > 256 |  |
| CCCCN(CCCC)CCCCCCCCCCCCOc1cc(=O)oc2ccccc12 | 4 (≈ 8.74 µM) | 4 (≈ 8.74 µM) | > 256 | > 256 | MIC (Bacillus subtilis): 1 µg/mL (≈ 2.18 µM); MIC (Enterococcus faecalis): 4 µg/mL (≈ 8.74 µM); MIC (Bacillus cereus): 8 µg/mL (≈ 17.5 µM); MIC (Listeria monocytogenes): 1 µg/mL (≈ 2.18 µM) |
| CCCN(CCC)CCCCOc1ccc2ccc(=O)oc2c1 | > 256 | > 256 | > 256 | > 256 |  |
| CCCCN(CCCC)CCCCCCCCOc1cc(=O)oc2ccccc12 | 16 (≈ 39.8 µM) | 32 (≈ 79.7 µM) | > 256 | > 256 |  |
| CN(C)CCCCCCCCOc1ccc2ccc(=O)oc2c1 | > 128 | 64 (≈ 202 µM) | > 256 | > 256 |  |
| CCCN(CCC)CCCCCCCCOc1ccc2ccc(=O)oc2c1 | 32 (≈ 85.7 µM) | 32 (≈ 85.7 µM) | > 256 | > 256 |  |
| CCCCN(CCCC)CCCCCCCCCCCCOc1ccc2ccc(=O)oc2c1 | 1 (≈ 2.18 µM) | 4 (≈ 8.74 µM) | > 256 | > 256 |  |
| CCCN(CCC)CCCCCCCCCCCCOc1ccc2ccc(=O)oc2c1 | 8 (≈ 18.6 µM) | 4 (≈ 9.31 µM) | > 256 | > 256 |  |
